Measurements as given in patent publication US8188080B2 (Sanford-Burnham Medical Research Institute, priority 2007, dated 2012).
Where two headings read alike, the source gives them in different places.

Columns and labels:
VHR [1] = target: T1, VHR (Homo sapiens, UniProt P51452); assay: Inhibition constant and inhibition pattern (Lineweaver-Burk plot); assay type: biochemical; conditions: FIG. 1
Experimental: Using the same format and buffer system as for […] measurements, the enzyme was preincubated with various fixed concentrations of inhibitors for 10 minutes. The reaction was initiated by addition of various concentrations of DiFMUP (ranging from 0.2 to 10 km) to the reaction mixture. The initial rate was determined using a FLx800 micro plate reader (Bio-Tek Instruments, Inc.), and exitation wave length of 360 nm and measuring the emission of the fluorescent reaction product DiFMU at 460 nm. The nonenzymatic hydrolysis of the substrate was corrected by measuring the control without addition of enzyme. The inhibition constant and inhibition pattern was evaluated by fitting the data to the Michaelis-Menten equations for either competitive, uncompetitive or mixed inhibition, using nonlinear regression and the program GraphPad Prism™.

VHR [2] = target: T1, VHR; assay: PTP-catalyzed hydrolysis of DiFMUP, IC50 determination (VHR); assay type: biochemical; conditions: read-out: IC50
Experimental: The PTP-catalyzed hydrolysis of 6,8-difluoro-4-methylumbelliferyl phosphate (DiFMUP) in the presence of the test compound is assayed at 30° C. in a 60 μL 96 well format reaction system in 0.15 M Bis-Tris, pH 6.0 assay buffer having an ionic strength of 150 mM (adjusted with NaCl) and containing 1 mM dithiotreitol and 5% DMSO. At various concentrations of the compound, the initial rate at fixed DiFMUP concentration (equal to the corresponding Km value for each PTP) was determined using a FLx800 micro plate reader (Bio-Tek Instruments, Inc.), an excitation wave length of 360 nm and measuring the emission of the fluorescent reaction product 6,8-difluoro-7-hydroxy-4-methylcoumarin (DiFMU) at 460 nm. The nonenzymatic hydrolysis of the substrate was corrected by measuring the control without addition of enzyme. The IC50 value was determined by plotting the relative activity versus inhibitor concentrations and fitting to Equation 1 using the software GraphPad Prism™ (GraphPad Software, Inc.).
[formula] In this case, Vi, is the reaction velocity when the inhibitor concentration is [I], V0 is the reaction velocity with no inhibitor and IC50=Ki+Ki[S]/Km.

Ball-1 cells = conditions: in vitro, arrest at G1/S transition; cited from earlier work
heparanase = target: T2, heparanase (Homo sapiens, UniProt Q9Y251); conditions: cited from earlier work
T2 sequence (Q9Y251 158-543 limits assumed): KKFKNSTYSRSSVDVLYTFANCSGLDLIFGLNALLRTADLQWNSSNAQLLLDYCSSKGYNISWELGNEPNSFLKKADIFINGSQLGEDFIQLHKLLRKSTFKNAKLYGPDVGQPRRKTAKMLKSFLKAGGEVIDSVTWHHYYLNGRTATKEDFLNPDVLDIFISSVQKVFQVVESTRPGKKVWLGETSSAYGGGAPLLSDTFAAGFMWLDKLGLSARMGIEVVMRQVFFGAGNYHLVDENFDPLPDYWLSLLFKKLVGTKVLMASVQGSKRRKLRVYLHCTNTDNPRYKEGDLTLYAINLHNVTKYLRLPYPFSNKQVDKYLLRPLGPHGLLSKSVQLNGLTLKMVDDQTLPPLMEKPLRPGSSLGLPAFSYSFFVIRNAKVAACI
T2 sequence (Q9Y251 36-109 partner limits assumed): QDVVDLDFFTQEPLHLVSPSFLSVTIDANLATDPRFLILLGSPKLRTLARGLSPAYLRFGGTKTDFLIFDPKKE

HIV-1 protease = HIV-1 protease (Human immunodeficiency virus type 1 group M subtype B, UniProt P04585); conditions: cited from earlier work
phospholipase A2 = conditions: cited from earlier work

T1 sequence (P51452 whole entry): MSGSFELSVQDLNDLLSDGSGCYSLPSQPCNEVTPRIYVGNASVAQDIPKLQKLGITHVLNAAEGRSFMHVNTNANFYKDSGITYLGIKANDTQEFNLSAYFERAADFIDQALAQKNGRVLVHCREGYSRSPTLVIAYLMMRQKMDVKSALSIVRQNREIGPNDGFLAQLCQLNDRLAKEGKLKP

O=C1/C(=C/C=C/c2ccccc2)SC(=S)N1CCS(=O)(=O)O [2-[(Z)-4-oxo-5-((E)-3-phenylallylidene)-2-thioxothiazolidin-3-yl]ethane-sulfonic acid]
inhibition pattern of VHR (VHR [1]): competitive inhibition

CCOc1cc(/C=C2\SC(=S)N(CCS(=O)(=O)O)C2=O)ccc1O [Compound 1, (Z)-2-[5-(3-Ethoxy-4-hydroxybenzylidene)-4-oxo-2-thioxothiazolidin-3-yl)ethansulfonic acid]
IC50 (VHR [2]): 50 µM

O=C1/C(=C/c2ccc(Cl)cc2Cl)SC(=S)N1CCS(=O)(=O)O [Compound 2, (Z)-2-[5-(2,4-Dichlorobenzylidene)-4-oxo-2-thioxothiazolidin-3-yl)ethansulfonic acid]
IC50 (VHR [2]): 9.81 µM

O=C(CN1C(=O)C(/C=C2\SC(=S)N(CCS(=O)(=O)O)C2=O)c2ccccc21)Nc1ccc(F)cc1 (stereo not drawn) [Compound 4]
IC50 (VHR [2]): 12 µM

CCCCCCCCCCCCCCCC(=O)C1=C(O)C(CO)OC1=O (stereo not drawn) [RK-682]
cell cycle progression (Ball-1 cells): inhibited cell cycle progression
heparanase inhibition (heparanase): heparanase inhibition
HIV-1 protease inhibition (HIV-1 protease): HIV-1 protease inhibition
phospholipase A2 inhibition (phospholipase A2): phospholipase A2 inhibition

(Z)-2-[5-(5-bromo-1-methyl-2-oxoindolin-3-ylidene)-4-oxo-2-thioxothiazolindin-3-yl]ethanesulfonic acid [Compound 3]
IC50 (VHR [2]; Table I, DiFMUP at Km, pH 6.0, 30° C.): 32.6 µM
